The source of these data is patent publication US10239882B2, “Substituted 5-methyl-[1,2,4]triazolo[1,5-a]pyrimidin-2-amine compounds as PDE2 inhibitors” (DART NEUROSCIENCE (CAYMAN) LTD., priority 2014, dated 2019).

Where only a bound is given, the exact number is not on record here.

Sequence of FLAG-tagged PDE2A1 (amino acids 2-941) (O00408 2-941): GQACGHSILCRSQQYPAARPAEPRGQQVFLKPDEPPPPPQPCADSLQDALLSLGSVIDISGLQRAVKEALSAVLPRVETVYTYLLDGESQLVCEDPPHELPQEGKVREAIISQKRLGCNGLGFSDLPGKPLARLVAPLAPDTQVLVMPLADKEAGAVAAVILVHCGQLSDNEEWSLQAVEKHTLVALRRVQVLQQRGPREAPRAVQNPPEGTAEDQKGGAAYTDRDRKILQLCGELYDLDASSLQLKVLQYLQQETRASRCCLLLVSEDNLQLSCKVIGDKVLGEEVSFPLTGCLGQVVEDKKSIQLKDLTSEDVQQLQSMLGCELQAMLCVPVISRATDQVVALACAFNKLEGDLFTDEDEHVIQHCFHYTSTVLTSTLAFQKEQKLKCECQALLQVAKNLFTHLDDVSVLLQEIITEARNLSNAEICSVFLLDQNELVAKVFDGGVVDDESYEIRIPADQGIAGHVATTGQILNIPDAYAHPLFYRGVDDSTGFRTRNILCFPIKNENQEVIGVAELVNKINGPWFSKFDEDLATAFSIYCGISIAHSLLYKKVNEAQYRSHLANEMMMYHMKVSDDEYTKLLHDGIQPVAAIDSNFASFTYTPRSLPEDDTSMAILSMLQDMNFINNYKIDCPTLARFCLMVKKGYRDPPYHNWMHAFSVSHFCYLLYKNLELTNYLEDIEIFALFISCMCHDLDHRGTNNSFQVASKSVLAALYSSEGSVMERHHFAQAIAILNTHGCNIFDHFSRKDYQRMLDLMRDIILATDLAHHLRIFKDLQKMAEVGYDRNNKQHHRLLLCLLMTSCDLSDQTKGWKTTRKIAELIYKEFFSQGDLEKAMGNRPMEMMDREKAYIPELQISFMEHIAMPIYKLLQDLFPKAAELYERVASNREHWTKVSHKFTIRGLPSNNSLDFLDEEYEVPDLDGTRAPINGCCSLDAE

The first assay concerns the target FLAG-tagged PDE2A1 (amino acids 2-941) (Homo sapiens (Human), UniProt O00408). The assay is described as follows: IMAP TR-FRET PDE2A enzymatic assay. Particulars: 200 nM FAM-cAMP substrate, 11-point half-log dose-response. Format: biochemical. From the text: An IMAP TR-FRET-based phosphodiesterase assay was developed using the PDE2A isoform. IMAP technology is based on high-affinity binding of phosphate by immobilized metal (MIII) coordination complexes on nanoparticles. The IMAP “binding reagent” recognizes phosphate groups on AMP or GMP generated from cAMP or cGMP in a PDE reaction. Cyclic nucleotides that carry a phosphodiester bond and not a free phosphate are not recognized by the binding reagent. The time resolved fluorescence resonance energy transfer (TR-FRET) is afforded by a Terbium (Tb)-Donor pre-bound to the nanoparticles. FRET occurs when the fluorescent-labeled AMP or GMP product of a PDE reaction binds and comes into close proximity to the Tb-Donor complex. Due to the long lifetime of Tb fluorescence, detection can be run in time-resolved mode to reduce or eliminate interference from auto-fluorescent compounds.
The IMAP TR-FRET PDE2A assay was performed in 1536-well white plates. A total of 250 pg per well of FLAG-tagged PDE2A1 (amino acids 2-941) was dispensed in 2.5 μL IMAP assay buffer consisting of 10 mM Tris pH 7.2, 10 mM MgCl2, 1 mM DTT, and 0.1% fatty acid free BSA. 30 nL of compound was then added from 1 mM stocks in DMSO using a Kalypsys Pintool. Plates were incubated for 5 min at room temperature before dispensing 1.5 μL of 533 nM FAM-cAMP substrate for a final concentration of 200 nM. Following a brief centrifugation, plates were incubated for 30 min at room temperature. The assay was terminated by adding 5 μL IMAP binding reagent Tb complex to each well which was prepared according to manufacturer's recommendations (Molecular Devices). Plates were incubated an additional 90 minutes at room temperature and read on a Viewlux plate reader. All compounds were solvated at a concentration of 10 mM in DMSO and tested in 11-point half-log dose-response. Curve fitting and IC50 values were determined using a standard four parameter fit.
Background: Time-resolved FRET reads energy transfer from a long-lived donor to a nearby acceptor.
Regarding `Cc1cc(C2CCOCC2)n2nc(NCc3ccnc4ccccc34)nc2n1` [Example 60, 5-Methyl-7-(oxan-4-yl)-N-(quinolin-4-ylmethyl)-[1,2,4]triazolo[1,5-a]pyrimidin-2-amine], the “PDE2 (PIC50)” value was above 7.
Same read-out and setting: next, `Cc1cc(C2(C)CCOCC2)n2nc(NCc3cn(-c4ccccc4)nc3C)nc2n1` [Example 61, 5-Methyl-N-[(3-methyl-1-phenyl-1H-pyrazol-4-yl)methyl]-7-(4-methyloxan-4-yl)-[1,2,4]triazolo[1,5-a]pyrimidin-2-amine]: above 7; `Cc1cc(C2(C)CCOCC2)n2nc(NCc3cnn(-c4ccccc4)c3)nc2n1` [Example 62, 5-Methyl-7-(4-methyloxan-4-yl)-N-[(1-phenyl-1H-pyrazol-4-yl)methyl]-[1,2,4]triazolo[1,5-a]pyrimidin-2-amine]: above 7.
Consider `Cc1cc(C2CCOCC2)n2nc(NCc3cn(C(C)C)nc3C)nc2n1` [Example 66, 5-Methyl-N-{[3-methyl-1-(propan-2-yl)-1H-pyrazol-4-yl]methyl}-7-(oxan-4-yl)-[1,2,4]triazolo[1,5-a]pyrimidin-2-amine], for which the “PDE2 (PIC50)” value is recorded as above 7.
As for `Cc1cc(C2CCOC2)n2nc(NCc3cn(-c4ccccc4)nc3C)nc2n1` (stereo not shown) [Example 72, 5-Methyl-N-[(3-methyl-1-phenyl-1H-pyrazol-4-yl)methyl]-7-(oxolan-3-yl)-[1,2,4]triazolo[1,5-a]pyrimidin-2-amine], the “PDE2 (PIC50)” value is above 7.
Same read-out and setting: the figure for `Cc1cc(C(C)C)n2nc(NCc3cn(-c4ccccc4)nc3C)nc2n1` [Example 74, 5-Methyl-N-[(3-methyl-1-phenyl-H-pyrazol-4-yl)methyl]-7-(propan-2-yl)-[1,2,4]triazolo[1,5-a]pyrimidin-2-amine] is above 7; for `Cc1cc(C2(C)CC2)n2nc(NCc3cn(-c4ccccc4)nc3C)nc2n1` [Example 76, 5-Methyl-N-[(3-methyl-1-phenyl-1H-pyrazol-4-yl)methyl]-7-(1-methylcyclopropyl)-[1,2,4]triazolo[1,5-a]pyrimidin-2-amine] it is above 7.
Same read-out and setting: next, `Cc1cc(C2CCOCC2)n2nc(NCc3ccc(F)c(Cl)c3F)nc2n1` [Example 78, N-[(3-Chloro-2,4-difluorophenyl)methyl]-5-methyl-7-(oxan-4-yl)-[1,2,4]triazolo[1,5-a]pyrimidin-2-amine]: above 7; `Cc1cc(C2CCOCC2)n2nc(NCc3cc(Cl)c(F)cc3F)nc2n1` [Example 80, N-[(5-Chloro-2,4-difluorophenyl)methyl]-5-methyl-7-(oxan-4-yl)-[1,2,4]triazolo[1,5-a]pyrimidin-2-amine]: above 7; `Cc1cc(C2CCOCC2)n2nc(NCc3cc(F)cc(Br)c3)nc2n1` [Example 81, N-[(3-Bromo-5-fluorophenyl)methyl]-5-methyl-7-(oxan-4-yl)-[1,2,4]triazolo[1,5-a]pyrimidin-2-amine]: above 7.
On the same count and under the same terms, the figure for `Cc1cc(C2CCOCC2)n2nc(NCc3cc(-c4ccccc4)nn3C)nc2n1` [Example 82, 5-Methyl-N-[(1-methyl-3-phenyl-1H-pyrazol-5-yl)methyl]-7-(oxan-4-yl)-[1,2,4]triazolo[1,5-a]pyrimidin-2-amine] is above 7.
On to `Cc1cc(C2CCOCC2)n2nc(NCc3cccc(Br)c3F)nc2n1` [Example 83, N-[(3-Bromo-2-fluorophenyl)methyl]-5-methyl-7-(oxan-4-yl)-[1,2,4]triazolo[1,5-a]pyrimidin-2-amine], for which the “PDE2 (PIC50)” value was above 7.
On to `Cc1cc(C2CCOCC2)n2nc(NCc3cc(F)cc(Cl)c3)nc2n1` [Example 84, N-[(3-Chloro-5-fluorophenyl)methyl]-5-methyl-7-(oxan-4-yl)-[1,2,4]triazolo[1,5-a]pyrimidin-2-amine], for which the “PDE2 (PIC50)” value is reported as above 7.
Still for that read-out and setting: next, `Cc1cc(C2CCOCC2)n2nc(NCc3cc(C(F)(F)F)nn3C)nc2n1` [Example 85, 5-Methyl-N-{[1-methyl-3-(trifluoromethyl)-1H-pyrazol-5-yl]methyl}-7-(oxan-4-yl)-[1,2,4]triazolo[1,5-a]pyrimidin-2-amine]: above 7.

Staying with this assay, now noted: 200 nM FAM-cAMP substrate, 11-point half-log dose-response, read-out: PDE2 (PIC50).
`Cc1cc(C2CC2)n2nc(NCc3cn(-c4ccccc4)nc3C)nc2n1` [Example 63, 7-Cyclopropyl-5-methyl-N-[(3-methyl-1-phenyl-1H-pyrazol-4-yl)methyl]-[1,2,4]triazolo[1,5-a]pyrimidin-2-amine]: the IC50 lay in the range of 0.1 to 1 µM.
Take `COc1ccc([C@@H](C)Nc2nc3nc(C)cc(C4CCOCC4)n3n2)cc1` [Example 64, N-[(1R)-1-(4-Methoxyphenyl)ethyl]-5-methyl-7-(oxan-4-yl)-[1,2,4]triazolo[1,5-a]pyrimidin-2-amine]: the IC50 was in the range of 0.1 to 1 µM.
Regarding `Cc1cc(C2CCOCC2)n2nc(NCc3cn(CC(F)F)nc3C)nc2n1` [Example 65, N-{[1-(2,2-Difluoroethyl)-3-methyl-1H-pyrazol-4-yl]methyl}-5-methyl-7-(oxan-4-yl)-[1,2,4]triazolo[1,5-a]pyrimidin-2-amine], the IC50 was in the range of 0.1 to 1 µM.
On to `Cc1cc(C2CCOCC2)n2nc(NCc3ccc(F)cc3F)nc2n1` [Example 68, N-[(2,4-Difluorophenyl)methyl]-5-methyl-7-(oxan-4-yl)-[1,2,4]triazolo[1,5-a]pyrimidin-2-amine], for which the IC50 was in the range of 0.1 to 1 µM.
Still for that read-out and setting: the figure for `COc1ccc([C@H](C)Nc2nc3nc(C)cc(C4CCOCC4)n3n2)cc1` [Example 69, N-[(1S)-1-(4-Methoxyphenyl)ethyl]-5-methyl-7-(oxan-4-yl)-[1,2,4]triazolo[1,5-a]pyrimidin-2-amine] is 1 to 10 µM; for `Cc1cc(C2CCOCC2)n2nc(NCc3c(F)cncc3F)nc2n1` [Example 70, N-[(3,5-Difluoropyridin-4-yl)methyl]-5-methyl-7-(oxan-4-yl)-[1,2,4]triazolo[1,5-a]pyrimidin-2-amine] it is 0.1 to 1 µM; for `Cc1cc(C2CCC2)n2nc(NCc3cn(-c4ccccc4)nc3C)nc2n1` [Example 71, 7-Cyclobutyl-5-methyl-N-[(3-methyl-1-phenyl-1H-pyrazol-4-yl)methyl]-[1,2,4]triazolo[1,5-a]pyrimidin-2-amine] it is 0.1 to 1 µM.
With `Cc1cc(C2CCOCC2)n2nc(NCc3cc(C#N)ccc3F)nc2n1` [Example 73, 4-Fluoro-3-({[5-methyl-7-(oxan-4-yl)-[1,2,4]triazolo[1,5-a]pyrimidin-2-yl]amino}methyl)benzonitrile], the IC50 lay within 0.1 to 1 µM.
The same measure, in the same setting: next, `COc1ccc(CNc2nc3nc(C)cc(C4(C)CC4)n3n2)cc1` [Example 75, N-[(4-Methoxyphenyl)methyl]-5-methyl-7-(1-methylcyclopropyl)-[1,2,4]triazolo[1,5-a]pyrimidin-2-amine]: 0.1 to 1 µM.
For `COc1ccc(CNc2nc3nc(C)cc(C(C)(C)OC)n3n2)cc1` [Example 77, N-[(4-Methoxyphenyl)methyl]-7-(2-methoxypropan-2-yl)-5-methyl-[1,2,4]triazolo[1,5-a]pyrimidin-2-amine], the IC50 fell in the range of 1 to 10 µM.
Regarding `Cc1cc(C2CCOCC2)n2nc(NCc3cccc(C#N)c3)nc2n1` [Example 86, 3-({[5-Methyl-7-(oxan-4-yl)-[1,2,4]triazolo[1,5-a]pyrimidin-2-yl]amino}methyl)benzonitrile], the IC50 lay within 0.1 to 1 µM.
